Test system: 885724-159-R-J1-PDC complex spheroid viability
Assay: Anticancer human tumor 885724-159-R-J1-PDC patient-derived pancreatic adenocarcinoma cell line growth inhibition [POLQ]
Details: for IC50: curve of first compound; for viability, T/C: stronger effect = lower value
Method in brief: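 Three-cell-type spheroids modelling solid tumor plus stroma served as the readout system; POL inhibitors were tested individually and in combination, concentration ranges set by clinical Cmax where known.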

[1] = second compound 0.0316 µM, first compound 0.0316 µM
[2] = second compound 0.0316 µM, first compound 0.1 µM
[3] = second compound 0.0316 µM, first compound 0.316 µM
[4] = second compound 0.0316 µM, first compound 1 µM
[5] = second compound 0.0316 µM, first compound 3.16 µM
[6] = second compound 0.0316 µM, first compound 10 µM
[7] = second compound 0.1 µM, first compound 0.0316 µM
[8] = second compound 0.1 µM, first compound 0.1 µM
[9] = second compound 0.1 µM, first compound 0.316 µM
[10] = second compound 0.1 µM, first compound 1 µM
[11] = second compound 0.1 µM, first compound 3.16 µM
[12] = second compound 0.1 µM, first compound 10 µM
[13] = second compound 0.316 µM, first compound 0.0316 µM
[14] = second compound 0.316 µM, first compound 0.1 µM
[15] = second compound 0.316 µM, first compound 0.316 µM
[16] = second compound 0.316 µM, first compound 1 µM
[17] = second compound 0.316 µM, first compound 3.16 µM
[18] = second compound 0.316 µM, first compound 10 µM
[19] = second compound 1 µM, first compound 0.0316 µM
[20] = second compound 1 µM, first compound 0.1 µM
[21] = second compound 1 µM, first compound 0.316 µM
[22] = second compound 1 µM, first compound 1 µM
[23] = second compound 1 µM, first compound 3.16 µM
[24] = second compound 1 µM, first compound 10 µM
[25] = second compound 3.16 µM, first compound 0.0316 µM
[26] = second compound 3.16 µM, first compound 0.1 µM
[27] = second compound 3.16 µM, first compound 0.316 µM
[28] = second compound 3.16 µM, first compound 1 µM
[29] = second compound 3.16 µM, first compound 3.16 µM
[30] = second compound 3.16 µM, first compound 10 µM
[31] = second compound 10 µM, first compound 0.0316 µM
[32] = second compound 10 µM, first compound 0.1 µM
[33] = second compound 10 µM, first compound 0.316 µM
[34] = second compound 10 µM, first compound 1 µM
[35] = second compound 10 µM, first compound 3.16 µM
[36] = second compound 10 µM, first compound 10 µM
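Further: spheroids exposed to compounds for 7 days.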

## C#Cc1c(F)ccc2cc(O)cc(-c3ncc4c(N5CC6CCC(C5)N6)nc(OCC56CCCN5CC(F)C6)nc4c3F)c12 (stereo unspecified) + COC1C(OC(N)=O)C(O)C(Oc2ccc3c(O)c(NC(=O)c4ccc(O)c(CC=C(C)C)c4)c(=O)oc3c2C)OC1(C)C
Second compound 0.0316 µM
  IC50: 2.75 µM
Second compound 0.1 µM
  IC50: 2.49 µM
Second compound 0.316 µM
  IC50: 2.38 µM
Second compound 1 µM
  IC50: 2.67 µM
Second compound 3.16 µM
  IC50: 2.58 µM
Second compound 10 µM
  IC50: 2.97 µM
[1]
  viability, T/C: 104%
[2]
  viability, T/C: 101%
[3]
  viability, T/C: 88.5%
[4]
  viability, T/C: 76.8%
[5]
  viability, T/C: 45.2%
[6]
  viability, T/C: 21.7%
[7]
  viability, T/C: 104%
[8]
  viability, T/C: 94.3%
[9]
  viability, T/C: 93%
[10]
  viability, T/C: 72.1%
[11]
  viability, T/C: 44%
[12]
  viability, T/C: 21.7%
[13]
  viability, T/C: 95.7%
[14]
  viability, T/C: 107%
[15]
  viability, T/C: 88.7%
[16]
  viability, T/C: 76.6%
[17]
  viability, T/C: 40.9%
[18]
  viability, T/C: 22.6%
[19]
  viability, T/C: 97.9%
[20]
  viability, T/C: 100%
[21]
  viability, T/C: 90%
[22]
  viability, T/C: 76.5%
[23]
  viability, T/C: 45.2%
[24]
  viability, T/C: 20.8%
[25]
  viability, T/C: 94.9%
[26]
  viability, T/C: 97.2%
[27]
  viability, T/C: 90.3%
[28]
  viability, T/C: 67.2%
[29]
  viability, T/C: 47.8%
[30]
  viability, T/C: 22.3%
[31]
  viability, T/C: 99.4%
[32]
  viability, T/C: 92.6%
[33]
  viability, T/C: 95.2%
[34]
  viability, T/C: 73.9%
[35]
  viability, T/C: 49.4%
[36]
  viability, T/C: 21.9%

## C=CC(=O)N1CCN(c2nc(=O)n(-c3c(C)ccnc3C(C)C)c3nc(-c4c(O)cccc4F)c(F)cc23)C(C)C1 (stereo unspecified) + COC1C(OC(N)=O)C(O)C(Oc2ccc3c(O)c(NC(=O)c4ccc(O)c(CC=C(C)C)c4)c(=O)oc3c2C)OC1(C)C
Second compound 0.0316 µM
  IC50: > 10 µM
Second compound 0.1 µM
  IC50: > 10 µM
Second compound 0.316 µM
  IC50: > 10 µM
Second compound 1 µM
  IC50: > 10 µM
Second compound 3.16 µM
  IC50: > 10 µM
Second compound 10 µM
  IC50: > 10 µM
[1]
  viability, T/C: 104%
[2]
  viability, T/C: 97.9%
[3]
  viability, T/C: 110%
[4]
  viability, T/C: 113%
[5]
  viability, T/C: 114%
[6]
  viability, T/C: 91.7%
[7]
  viability, T/C: 109%
[8]
  viability, T/C: 91.9%
[9]
  viability, T/C: 106%
[10]
  viability, T/C: 108%
[11]
  viability, T/C: 115%
[12]
  viability, T/C: 105%
[13]
  viability, T/C: 107%
[14]
  viability, T/C: 115%
[15]
  viability, T/C: 104%
[16]
  viability, T/C: 112%
[17]
  viability, T/C: 123%
[18]
  viability, T/C: 95.1%
[19]
  viability, T/C: 118%
[20]
  viability, T/C: 104%
[21]
  viability, T/C: 112%
[22]
  viability, T/C: 106%
[23]
  viability, T/C: 114%
[24]
  viability, T/C: 83.2%
[25]
  viability, T/C: 102%
[26]
  viability, T/C: 108%
[27]
  viability, T/C: 104%
[28]
  viability, T/C: 116%
[29]
  viability, T/C: 124%
[30]
  viability, T/C: 104%
[31]
  viability, T/C: 96%
[32]
  viability, T/C: 93.7%
[33]
  viability, T/C: 106%
[34]
  viability, T/C: 110%
[35]
  viability, T/C: 111%
[36]
  viability, T/C: 91%

## CC1COCCN1c1cc(-c2ccnn2C)c2ccnc(-c3ccn[nH]3)c2n1 (stereo unspecified) + COC1C(OC(N)=O)C(O)C(Oc2ccc3c(O)c(NC(=O)c4ccc(O)c(CC=C(C)C)c4)c(=O)oc3c2C)OC1(C)C
Second compound 0.0316 µM
  IC50: 0.229 µM
Second compound 0.1 µM
  IC50: 0.211 µM
Second compound 0.316 µM
  IC50: 0.169 µM
Second compound 1 µM
  IC50: 0.188 µM
Second compound 3.16 µM
  IC50: 0.189 µM
Second compound 10 µM
  IC50: 0.247 µM
[1]
  viability, T/C: 78.3%
[2]
  viability, T/C: 63.8%
[3]
  viability, T/C: 44.3%
[4]
  viability, T/C: 42.1%
[5]
  viability, T/C: 39%
[6]
  viability, T/C: 39.3%
[7]
  viability, T/C: 76.5%
[8]
  viability, T/C: 64.3%
[9]
  viability, T/C: 41.6%
[10]
  viability, T/C: 41.5%
[11]
  viability, T/C: 35.2%
[12]
  viability, T/C: 35.6%
[13]
  viability, T/C: 81.1%
[14]
  viability, T/C: 53.8%
[15]
  viability, T/C: 44.3%
[16]
  viability, T/C: 43.5%
[17]
  viability, T/C: 43.3%
[18]
  viability, T/C: 36.2%
[19]
  viability, T/C: 84.1%
[20]
  viability, T/C: 55.8%
[21]
  viability, T/C: 43.6%
[22]
  viability, T/C: 43.7%
[23]
  viability, T/C: 41%
[24]
  viability, T/C: 33.5%
[25]
  viability, T/C: 76.4%
[26]
  viability, T/C: 55.9%
[27]
  viability, T/C: 45.5%
[28]
  viability, T/C: 37.8%
[29]
  viability, T/C: 37.8%
[30]
  viability, T/C: 33.8%
[31]
  viability, T/C: 77.1%
[32]
  viability, T/C: 57.6%
[33]
  viability, T/C: 48.2%
[34]
  viability, T/C: 41.1%
[35]
  viability, T/C: 38.9%
[36]
  viability, T/C: 34.4%
